Measurements published in paper PMC2917628 (FEBS letters, 2010).
Structures can show the parent of a compound that is named as a salt.

Experiments:
[1] = tested on: NIH 3T3 cells; conditions: ref [9]; cited from earlier work
[2] = tested on: LNCaP cells expressing Abi1 Y213F; assay: flow cytometric uptake of Alexa Fluor 647; assay type: cell-based; conditions: 25 μM Alexa Fluor 647 hydrazide, 2 hours
[3] = tested on: macropinocytic uptake of pathogenic bacteria; conditions: ref [10],[11]; cited from earlier work
[4] = tested on: macropinocytic uptake and membrane ruffles; conditions: ref [21]; cited from earlier work
[5] = tested on: Rac1 activation; conditions: ref [25]; cited from earlier work

Molecule: O=c1cc(N2CCOCC2)oc2c(-c3ccccc3)cccc12 [LY294002]
- macropinocytic uptake of Alexa Fluor 594 [1]: inhibit macropinocytic uptake

Molecule: C/C1=C/C(=O)O[C@@H]2C[C@@H](CC[C@H](C)/C=C\C=C\CC1)O[C@@](O)([C@@H]1CSC(=O)N1)C2 [Latrunculin A, latrunculin A]
- macropinocytic uptake of Alexa Fluor 647 with latrunculin A, Abi1 Y213F cells ([2]; 0.2 μM latrunculin A, PDGF not added): significant decrease

Molecule: Cc1ccc(NC(=O)c2ccc(CN3CCN(C)CC3)cc2)cc1Nc1nccc(-c2cccnc2)n1 [STI-571, Imatinib mesylate]
- macropinocytic uptake of pathogenic bacteria [3]: inhibits macropinocytic uptake of pathogenic bacteria

Molecule: COC[C@H]1OC(=O)c2coc3c2[C@@]1(C)C1=C(C3=O)[C@@H]2CCC(=O)[C@@]2(C)C[C@H]1OC(C)=O [wortmannin]
- macropinocytic uptake of Alexa Fluor 594 [1]: inhibit macropinocytic uptake
- macropinocytic uptake and formation of membrane ruffles [4]: inhibits macropinocytic uptake and the formation of membrane ruffles but not in all cells

B1: PDGF: PDGF BB (cat # 3201), Sigma-Aldrich (protein, UniProt P01127 82-190, looked up)
Platelet-derived growth …: SLGSLTIAEPAMIAECKTRTEVFEISRRLIDRTNANFLVWPPCVEVQRCSGCCNNRNVQCRPTQVQLRPVQVRKIEIVRKKPIFKKATVTLEDHLACKCETVAAARPVT
modifications: Platelet-derived growth factor subunit B homodimer
- Rac1 activation following PDGF stimulation [5]: enhanced Rac1 activation
- PDGF response of Alexa Fluor 647 uptake, Abi1 Y213F cells ([2]; 10 ng/ml PDGF): demonstrated PDGF response
